Earlier results in patent US20240058412A1, “MODIFIED RELEASE FORMULATION COMPRISING WITHANOLIDES” (INVENTIA HEALTHCARE LIMITED, priority 2021, published 2024).

Details: mice plasma, oral Withania somnifera extract 1000 mg/kg

SMILES | half-life [min]
CC1=C(CO)C(=O)O[C@@H]([C@@H](C)[C@H]2CC[C@H]3[C@@H]4C[C@H]5O[C@]56[C@@H](O)C=CC(=O)[C@]6(C)[C@H]4CC[C@]23C)C1 [withaferin-A] | 59.92 ± 15.90
CC1=C(C)C(=O)O[C@@H]([C@](C)(O)[C@H]2CC[C@H]3[C@@H]4[C@@H]5O[C@@H]5[C@@]5(O)CC=CC(=O)[C@]5(C)[C@H]4CC[C@]23C)C1 [withanolide-A] | 45.22 ± 9.95
